We go through 18 molecules from ChEMBL document CHEMBL3785070, “Synthesis and evaluation of novel opioid ligands with a C-homomorphinan skeleton” (Bioorg Med Chem, 2016).

Assay [1] deals with T1, Kappa-type opioid receptor (Homo sapiens, UniProt P41145). Put plainly: Agonist activity at human kappa opioid receptor expressed in CHO cell membranes by [35S]GTPgammaS binding assay. In kind it is functional. On the technique in general: GTPγS resists hydrolysis and so accumulates on activated G proteins.
T1 sequence (P41145 whole entry): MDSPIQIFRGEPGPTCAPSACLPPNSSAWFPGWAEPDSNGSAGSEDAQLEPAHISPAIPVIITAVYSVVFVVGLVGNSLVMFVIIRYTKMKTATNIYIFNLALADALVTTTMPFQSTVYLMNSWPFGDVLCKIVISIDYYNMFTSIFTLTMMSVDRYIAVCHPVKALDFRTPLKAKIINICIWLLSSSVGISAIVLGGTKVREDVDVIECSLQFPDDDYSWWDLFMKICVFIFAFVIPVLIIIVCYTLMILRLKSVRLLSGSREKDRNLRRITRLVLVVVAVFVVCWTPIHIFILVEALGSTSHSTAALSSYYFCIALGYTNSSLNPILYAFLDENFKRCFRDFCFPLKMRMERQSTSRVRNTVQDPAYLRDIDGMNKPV
The target of assay [2] is T2, Delta-type opioid receptor (Homo sapiens, UniProt P41143). The assay can be described thus: Displacement of [3H]DPDPE from human delta opioid receptor expressed in CHO cell membranes. For orientation: In a radioligand displacement assay an active substance lowers the binding of a labelled ligand.
T2 sequence (P41143 whole entry): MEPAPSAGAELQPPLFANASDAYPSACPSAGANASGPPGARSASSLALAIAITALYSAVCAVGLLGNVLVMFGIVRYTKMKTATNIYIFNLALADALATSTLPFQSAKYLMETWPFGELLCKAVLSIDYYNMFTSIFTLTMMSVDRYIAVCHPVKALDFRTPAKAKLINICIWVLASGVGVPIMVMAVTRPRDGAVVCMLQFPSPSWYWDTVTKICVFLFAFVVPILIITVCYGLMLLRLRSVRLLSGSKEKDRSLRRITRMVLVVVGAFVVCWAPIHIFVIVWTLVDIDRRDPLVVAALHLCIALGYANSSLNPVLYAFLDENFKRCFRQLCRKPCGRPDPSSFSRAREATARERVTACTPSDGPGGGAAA
For assay [3], the target named is T3, Mu-type opioid receptor (Homo sapiens, UniProt P35372). The assay can be described thus: Displacement of [3H]DAMGO from human mu opioid receptor expressed in CHO cell membranes.
T3 sequence (P35372 whole entry): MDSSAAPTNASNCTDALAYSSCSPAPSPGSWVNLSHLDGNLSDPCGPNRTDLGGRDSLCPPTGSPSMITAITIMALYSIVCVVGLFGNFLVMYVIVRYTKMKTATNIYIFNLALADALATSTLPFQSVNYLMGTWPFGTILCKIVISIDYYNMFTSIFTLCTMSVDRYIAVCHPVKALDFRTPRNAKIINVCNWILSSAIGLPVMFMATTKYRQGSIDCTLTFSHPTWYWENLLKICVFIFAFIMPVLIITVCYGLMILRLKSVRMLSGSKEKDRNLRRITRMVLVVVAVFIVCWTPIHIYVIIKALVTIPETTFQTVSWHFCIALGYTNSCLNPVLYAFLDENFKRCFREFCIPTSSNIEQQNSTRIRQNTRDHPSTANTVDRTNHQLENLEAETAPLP
The target of assay [4] is T2, Delta-type opioid receptor. Put plainly: Agonist activity at human delta opioid receptor expressed in CHO cell membranes by [35S]GTPgammaS binding assay. The format is functional.
In assay [5] the target is T3, Mu-type opioid receptor. The assay can be described thus: Agonist activity at human mu opioid receptor expressed in CHO cell membranes by [35S]GTPgammaS binding assay. The format is functional.
Assay [6] deals with T1, Kappa-type opioid receptor. Put plainly: Displacement of [3H]U-69,593 from human kappa opioid receptor expressed in CHO cell membranes.
Assay [7] addresses T2, Delta-type opioid receptor. The assay can be described thus: Agonist activity at human delta opioid receptor expressed in CHO cell membranes by [35S]GTPgammaS binding assay relative to SNC80. The format is functional.
Assay [8] addresses T3, Mu-type opioid receptor. The assay can be described thus: Agonist activity at human mu opioid receptor expressed in CHO cell membranes by [35S]GTPgammaS binding assay relative to DAMGO. In kind it is functional.
Assay [9] has as its system CHO. Put plainly: Selectivity ratio of Ki for human kappa opioid receptor expressed in CHO cell membranes to Ki for human delta opioid receptor expressed in CHO cell membranes. In kind it is cell-based.
For assay [10], the system named is CHO. The assay can be described thus: Selectivity ratio of Ki for human mu opioid receptor expressed in CHO cell membranes to Ki for human delta opioid receptor expressed in CHO cell membranes. In kind it is cell-based.
In assay [11] the target is T1, Kappa-type opioid receptor. The assay can be described thus: Agonist activity at human kappa opioid receptor expressed in CHO cell membranes at 10 uM by [35S]GTPgammaS binding assay relative to U-69,593. In kind it is functional.
Assay [12] deals with T1, Kappa-type opioid receptor. The assay can be described thus: Agonist activity at human kappa opioid receptor expressed in CHO cell membranes by [35S]GTPgammaS binding assay relative to U-69,593. In kind it is functional.
For assay [13], the target named is T3, Mu-type opioid receptor. The assay can be described thus: Agonist activity at human mu opioid receptor expressed in CHO cell membranes at 10 uM by [35S]GTPgammaS binding assay relative to DAMGO. The format is functional.

What is called EC50 is the concentration at which the effect is half-maximal. A lower EC50 goes with a more potent agent. One may read the Ki as the equilibrium dissociation constant of an inhibitor or competing ligand from its target. A higher Ki goes with a looser hold on the target. Regarding `Oc1ccc2c(c1)[C@]13CCN(CC4CC4)C(C2)[C@]1(O)CCc1c([nH]c2ccccc12)C3`, the EC50 in assay [1] was 3.19 nM; in assay [4], 1.06 nM; in [5], 6.23 nM. In addition, the Ki is 0.531 nM in assay [2], 5.75 nM in [3] and 6.63 nM in [6].

Broadly, the Emax is the size of the effect at its maximum, as opposed to the concentration needed. On to `O=C1C[C@]23CCN(CC4CC4)[C@H](Cc4ccc(O)cc42)[C@]3(O)C/C1=C/c1ccccc1`, for which the EC50 in assay [1] is > 10000 nM; in assay [4], 3.17 nM; in assay [5], 54.6 nM. The Ki stood at 0.585 nM in assay [2], 4.61 nM in assay [3] and 9.65 nM in assay [6]. Further, the Emax is 40.8% in assay [7] and 31.8% in assay [8]. Further, the Ratio Ki in assay [9] is 16.5; in assay [10], 7.9. This molecule also gave an Activity in assay [11] of 30%.

In the case of `Oc1ccc2c(c1)[C@]13CCN(CC4CC4)[C@H](C2)[C@]1(O)CCc1c([nH]c2ccccc12)C3`, the Emax amounted to 64.8% in assay [7], 23.5% in assay [8] and 10% in [12]. The results for the Ratio Ki in [9] and in assay [10] were 12.5 and 10.8, respectively.

As for `Oc1ccc2c(c1)[C@]13CCN(CC4CC4)C(C2)[C@]1(O)Cc1cc2ccccc2nc1C3`, the values for the EC50 in assay [1], in assay [4] and in assay [5] were > 10000 nM, 0.813 nM and > 10000 nM, respectively. Moreover, the Ki in assay [2] is 0.303 nM; in assay [3], 7.2 nM; in assay [6] it was 3.22 nM.

Regarding `O=C1C[C@]23CCN(CC4CC4)[C@H](Cc4ccc(O)cc42)[C@]3(O)CC/C1=C/c1ccccc1`, the results for the Emax in assay [7], in [8] and in assay [12] were 27%, 38.6% and 39.4%, respectively. The Ratio Ki in assay [9] amounted to 1.8; in assay [10], 5.3.

Take `O=C1/C(=C/c2ccccc2)C[C@@]2(O)[C@H]3Cc4ccc(O)c5c4[C@@]2(CCN3CC2CC2)[C@H]1O5` [BNTX]: the Ki amounted to 3.53 nM in assay [2], 10.5 nM in assay [3] and 28.3 nM in assay [6]. The Ratio Ki amounted to 8 in [9] and 3 in [10].

Take `O=C1CCC[C@@]2(O)[C@H]3Cc4ccc(O)cc4[C@@]2(CCN3CC2CC2)C1`: the Ratio Ki was determined as 0.062 in assay [9] and 0.057 in [10].

On to `O=C1CC[C@@]2(O)[C@H]3Cc4ccc(O)cc4[C@@]2(CCN3CC2CC2)C1`, for which the figures for the inhibition constant Ki in assay [2], in assay [3] and in assay [6] were 2.62 nM, 0.769 nM and 0.648 nM, respectively. The figures for the Ratio Ki in [9] and in [10] were 0.25 and 0.29, respectively.

With `O=C1C[C@]23CCN(CC4CC4)C(Cc4ccc(O)cc42)[C@]3(O)CC/C1=C\c1ccccc1`, the EC50 is 14.7 nM in [1] and > 10000 nM in assay [4]. In addition, the Ki in assay [2] came to 0.644 nM; in [3], 5.81 nM; in assay [6], 9.11 nM.

`Oc1ccc2c(c1)[C@]13CCN(CC4CC4)[C@@H](C2)[C@]1(O)Cc1c([nH]c2ccccc12)C3`: the maximum response (Emax) in assay [7] turned out to be 38.9%; in assay [12], 15.4%. For the same molecule, the Ratio Ki in assay [9] was determined as 31.4; in assay [10], 261. In addition, in assay [13], the Activity is 33%.

With `Oc1ccc2c(c1)[C@]13CCN(CC4CC4)C(C2)[C@]1(O)CCc1cc2ccccc2nc1C3`, the EC50 stood at 28.4 nM in [1], 7.32 nM in assay [4] and 11.6 nM in assay [5]. Moreover, the Ki in [2] amounted to 2.3 nM; in assay [3], 17.6 nM; in assay [6], 4.3 nM.

As to `O=C1C[C@]23CCN(CC4CC4)[C@H](Cc4ccc(O)cc42)[C@]3(O)CC/C1=C\c1ccccc1`, the Ratio Ki was 14.1 in assay [9] and 9 in assay [10]. The molecule further registered an Emax in assay [12] of 18.4%.

`Oc1ccc2c(c1)[C@]13CCN(CC4CC4)[C@@H](C2)[C@]1(O)Cc1cc2ccccc2nc1C3` registered an Emax in assay [7] of 82.6%. The Ratio Ki in assay [9] worked out at 10.7; in assay [10], 23.8. The figures for the Activity in assay [11] and in [13] were 28.1% and 20.8%, respectively.

`O=C1C[C@]23CCN(CC4CC4)[C@H](Cc4ccc(O)cc42)[C@]3(O)C/C1=C\c1ccccc1`: the EC50 in [1] is 8.02 nM; in assay [4] it was 12.5 nM; in assay [5], > 10000 nM. Moreover, the Ki in assay [2] turned out to be 2.76 nM; in assay [3] it was 22 nM; in assay [6], 39.1 nM. Further, the Emax in assay [7] was 37%; in assay [12], 20.2%. The Ratio Ki in [9] worked out at 14.2; in [10] it was 8. The Activity in assay [13] worked out at 25.6%.

On to `Oc1ccc2c(c1)[C@]13CCN(CC4CC4)[C@H](C2)[C@]1(O)CCc1cc2ccccc2nc1C3`, for which the values for the Emax in assay [7], in assay [8] and in [12] were 104%, 31.2% and 43.9%, respectively. The Ratio Ki turned out to be 1.9 in assay [9] and 7.7 in [10].

On to `Oc1ccc2c(c1)[C@]13CCN(CC4CC4)C(C2)[C@]1(O)Cc1c([nH]c2ccccc12)C3`, for which the EC50 was 3.76 nM in assay [1], 1.4 nM in [4] and > 10000 nM in assay [5]. Also, the Ki in assay [2] came to 0.0945 nM; in assay [3], 24.7 nM; in assay [6], 2.97 nM.

As for `O=C1CCC[C@@]2(O)C3Cc4ccc(O)cc4[C@@]2(CCN3CC2CC2)C1`, the Ki in assay [2] is 12.1 nM; in assay [3] it was 0.692 nM; in assay [6] it was 0.748 nM.

As to `O=C1C[C@]23CCN(CC4CC4)C(Cc4ccc(O)cc42)[C@]3(O)CC/C1=C/c1ccccc1`, the concentration for a half-maximal effect (EC50) in [1] was 21.4 nM; in assay [4], 1.83 nM; in assay [5] it was 19.2 nM. The Ki was found to be 9.81 nM in assay [2], 52.2 nM in [3] and 17.5 nM in assay [6].
